# pIC50: −log10 of the molar value. Like-named read-outs stand apart in the source and are kept apart here.
# Columns and labels:
# stat5 = test: Immunoblotting of stat5 expression and phosphorylation in K562 cells; type: cell-based, Human
# Protocol: K562 cells were treated as indicated for 72 h and stat5 expression was assessed by immunoblotting. Pioglitazone (Pio) was used as a positive control. Data is one representative of 3 independent experiments.
# K562 cells were treated as indicated for 30 min and stat5 phosphorylation at Y694 or CrkL phosphorylation at Y207 were assessed by immunoblotting. Total stat5 or β-actin expression was assessed to ensure equal loading. Pio was used as a negative control and IMT was used as a positive control. Data is one representative of 3 independent experiments.
# K562 cells were cultured in 6 well plates and treated as indicated in figures or descriptions of FIG. 1E, FIG. 1G and FIG. 2D-E. Cells were then homogenized in lysis buffer containing 50 mM Tris-HCl, pH 7.5, 150 mM NaCl, 1% NP40, 5 mM EDTA, 1 mM DTT, protease and phosphatase inhibitor cocktails (Sigma) and incubated on ice for 30 min followed by 5 cycles of freeze-thaw. Samples were then centrifuged at 14000 rpm at 4° C. for 30 min. Supernatants were then quantified by Bichinchonic acid (Sigma)-based protein estimation. Equal amount of proteins were solubilized in Laemmli buffer, and were resolved by 10%-12% SDS PAGE and transferred onto PVDF membranes (Millipore; Billerica, Mass.). […] Immunoreactivity was detected using a chemiluminescent HRP Substrate (Millipore) in a LAS 4010 Chemi-doc Imager (GE Healthcare, Little Chalfont, UK). […]
# [1] = test system: CD34+ cells from healthy donors
# Protocol: (§1) Determination of CFZ's Effect on Cell Viability and Apoptosis • a. CellTitre-Glo assay: Cell viability (in FIG. 1B, FIG. 4 and FIG. 6A) assays was performed using the ATP-based CellTiter-Glo Luminescent cell viability assay (Promega Madison, Wis.) as per the manufacturer's instruction. Briefly, (1.25×10^5) K562 cells/ml (FIG. 1B and FIG. 4) or CD34+ cells from healthy donors (FIG. 6A) were cultured in 48-well plates and were treated as indicated in the respective figures and figure descriptions (vehicle; V=0.1% DMSO). Cells were then incubated with CellTitre-Glo reagent for 15 min. Luminescence was recorded in a GloMax-96 Microplate luminometer (Promega, Madison, Wis.) with an integration time of 1 s per well. • b. Analysis of apoptosis by Annexin V staining and flow cytometry • K562 (FIG. 1C-D) and primary CP-CML cells (FIG. 1H-I) were cultured in 6 well plates (2×10^5 cells/well) and were treated with indicated concentrations of compounds as described in respective figures and their descriptions. Cells were then harvested and washed, and incubated in binding buffer (Annexin V Binding Buffer, BD Pharmingen) with 0.3% Annexin V-FITC and PI for 15 min at room temperature in dark. Apoptosis was measured by FACSCalibur flow cytometer (Becton Dickenson, San Jose, Calif.). • c. TUNEL assay • Pro-apoptotic potential was analysed using a Fluorometric APO-BrdU™ TUNEL Assay Kit (Invitrogen) according to the manufacturer's protocol (FIG. 1F). Cells were treated with Vehicle (0.1% DMSO) or CFZ (5 μM) for 48 h. Cells were then fixed in formaldehyde (4%) for 25 min at 4° C., permeabilized with 0.2% Triton-X100 and washed with PBS. Cells were then incubated in Terminal Deoxynucleotidyl Transferase (TdT) reaction buffer without TdT enzyme for 7 minutes at room temperature and then in TdT buffer with TdT enzyme at 37° C. in dark. After termination of TdT reaction, cells were stained with 5 μg/ml of PI for 15 min in dark followed by washing and analysed with fluorescence microscopy.
# [2] = cited from earlier work
# K562 cells [3] = test: K562 cell viability, CellTiter-Glo luminescent assay; type: cell-based, Human; conditions: 48 h; for pIC50: Homo sapiens
# Protocol: K562 cells were treated with indicated concentrations of CFZ for 24 h or 48 h, cell viability was then assessed using the CellTiter-Glo luminescent cell viability assay (Promega). Data is mean±SEM of three independent experiments (each in triplicates). IC50 was calculated using Graphpad prism 5 software.
# K562 cells were treated as indicated for 48 h and cell viability was determined by CellTiter-Glo luminescent cell viability assay (A) graphical representation of mean±SEM of three independent experiments.
# as §1
# [4] = test system: aldehyde dehydrogenase (ALDH) activity in CP-CML cells; test: Aldefluor assay of aldehyde dehydrogenase activity; type: cell-based, Human; conditions: imatinib-resistant CP-CML cells, n=6, 5 μM, 48 h
# Protocol: CP-CML cells from imatinib-resistant patients (n=6) were treated with CFZ or salinomycin (5 μM; 48 h) and aldehyde dehydrogenase activity in these cells were assessed using an ALDEFLUOR kit (Stemcell technologies). ***p<0.0001.
# CP-CML cells isolated from imatinib-resistant patients were treated with vehicle (V; 0.1% DMSO), CFZ or salinomycin (both 5 μM) for 48 h (FIG. 2C). Aldehyde dehydrogenase activity in CP-CML cells was assessed using an Aldefluor kit ([…] technologies) by flow cytometry (FACSCalibur).
# K562 cells [5] = test: TUNEL assay in K562 cells; type: cell-based, Human; conditions: CFZ 5 μM, 48 h
# Protocol: K562 cells were treated with CFZ for 48 h and TUNEL staining was performed followed by fluorescent microscopy. Images are representative of two independent experiments (8 fields per group).
structure (smiles),measurement,setting,value
"CC(C)/N=c1\cc2n(-c3ccc(Cl)cc3)c3ccccc3nc-2cc1Nc1ccc(Cl)cc1 [CFZ, Clofazimine]",stat5 phosphorylation,"stat5; 30 min, Y694",without altering
same,stat5 protein expression,"stat5; 72 h, FIG. 2D",suppressed
same,apoptosis in CD34+ cells from healthy donor by Annexin V,[1],no apoptosis
same,viability of CD34+ hematopoietic progenitor cells from healthy controls,[1],No loss of survival
same,average human plasma level of CFZ,[2]; following daily oral administration of 100 mg CFZ,0.7 mg/L
same,human plasma Cmax of CFZ,[2]; human plasma,400 to 4000 ng/mL
same,combination index (CI),"K562 cells [3]; CFZ with dasatinib, Compusyn",< 1
same,combination index (CI),"K562 cells [3]; CFZ with imatinib, Compusyn program",< 1
same,pIC50,"K562 cells [3]; FIG. 1B, read-out: IC50 (48 h), reduction of viability",5.23
same,pIC50,"K562 cells [3]; drug alone, FIG. 4A, read-out: IC50, K562 cell viability assay (48 h)",5.38
same,aldehyde dehydrogenase (ALDH) activity,[4],remarkably decreased
same,apoptosis as determined by TUNEL assay,K562 cells [5],induces apoptosis

# Source: US10576078B2 (Council of Scientific & Industrial Research, priority 2017, dated 2020)
